Structures can show the parent of a compound that is named as a salt.
Assay: In vitro MDA-MB-468 human breast adenocarcinoma GSK-3 phosphorylation assay
Format: cell-based
Conditions: mean IC50, MDA-MB-468 cells, 2 hours with compound, phospho-GSK-3β
Description: This assay determines the ability of test compounds to inhibit phosphorylation of Serine-9 residue in Glycogen Synthase Kinase-3beta (GSK-3β) as a surrogate marker of cellular PKB (Akt) activity, as assessed using Acumen Explorer Fluorescent Plate-Reader technology. A MDA-MB-468 human breast adenocarcinoma cell line (LGC Promochem, Teddington, Middlesex, UK, Catalogue No. HTB-132) was routinely maintained in Dulbecco's modified Eagle's growth medium (DMEM; Invitrogen Limited, Paisley, UK Catalogue No. 11966-025) containing 10% heat-inactivated foetal calf serum (FCS; Sigma, Poole, Dorset, UK, Catalogue No. F0392) and 1% L-glutamine (Gibco, Catalogue No. 25030-024) at 37° C. with 5% CO2 up to a confluency of 70-90%.
For the phosphorylation assay, the cells were detached from the culture flask using Trypsin-EDTA (Invitrogen Limited, Catalogue No. 25300-062) and seeded into the wells of a black transparent-bottom Corning Costar Polystyrene 96 well plate (Fisher Scientific UK, Loughborough, Leicestershire, UK; Catalogue No. 3904 and DPS-130-020K) at a density of 5000 cells per well in 100 μl of complete growth media. The cells were incubated overnight at 37° C. with 5% CO2 to allow them to adhere.
On day 2, the cells were treated with test compounds and incubated for 2 hours at 37° C. with 5% CO2. Test compounds were prepared as 10 mM stock solutions in DMSO and dosed directly to required concentration into test wells using non-contact (acoustic dispensing of multiple 2.5 nl droplets directly into assay wells) ECHO dosing technology (Labcyte Inc. Sunnyvale, Calif., USA). Each plate contained control wells without test compound.
20 μl of fixing buffer (Phosphate Buffered Saline (PBS) containing 10% formaldehyde; Sigma; Catalogue No. F1635) was then added to each well to give a final well concentration 1.6%. Plates were then incubated for 30 minutes at room temperature prior to the fixative being removed. Each well was washed once with 250 μl of PBS and then 50 μl PBS added to each well. PBS was then aspirated and cells permeabilised and blocked by incubating each well with 50 μl of permeabilisation/blocking buffer (PBS containing 0.5% Tween 20 (Sigma; Catalogue No. P5927) and 5% Marvel Milk Powder (Andrews Pharmacy Ltd, Macclesfield, Cheshire, UK; Catalogue No. APC100199)) for 1 hour at room temperature prior to staining.
Following removal of Perm/Block buffer, 50 μl of primary anti-phospho-GSK-3β antibody (Cell Signalling Technology (New England Biolabs (Uk) Ltd.), Hitchin, Hertfordshire, UK; Catalogue No. 9336 diluted 1:400 in Blocking buffer (PBS containing 5% Marvel and 0.05% Tween/Polysorbate 20) was added to each well and incubated overnight at 4° C.
Each well was washed three times in 250 μl of wash buffer (PBS containing 0.05% polysorbate 20), and cells incubated for 1 hour at room temperature with 50 μl of secondary fluorescently-labelled anti-rabbit Alexa Fluor 488 antibody (Molecular Probes, Invitrogen Limited, Catalogue No. A11008) diluted 1:750 in blocking buffer. Plates were washed three times in 250 μl of wash buffer and stored containing 50 μl of PBS at 4° C. until required.
Plates were analysed using an Acumen Explorer Plate-reader to quantify level of fluorescent signal that represents quantity of phosphorylated-GSK-3β.
IC50 calculation—IC50 is the concentration of compound required to give 50% effect over the range of activity affected by the compound, between maximum (no compound) and minimum (excess level of compound) response control data. IC50 values were determined by fitting background corrected, dose response assay data to a 4 parameter logistic curve fit equation model with the minimum response set to zero. This was done using an in-house developed algorithm within the Origin graphing software package (OriginLab Corporation, Northampton, Mass., USA). […]

| SMILES | IC50 [nM] |
| --- | --- |
| Cc1sccc1-c1cccc(C2(CN)CCN(c3ncnc4[nH]cnc34)CC2)c1 [Example 7, C-[4-[3-(2-Methyl-thiophen-3-yl)-phenyl]-1-(9H-purin-6-yl)-piperidin-4-yl]-methylamine] | < 8 |
| NCC1(c2cccc(-c3cncc(F)c3)c2)CCN(c2ncnc3[nH]cnc23)CC1 [Example 8, C-[4-[3-(5-Fluoro-pyridin-3-yl)-phenyl]-1-(9H-purin-6-yl)-piperidin-4-yl]-methylamine] | < 13 |
| CNCC1(c2cccc(-c3cnn(C)c3)c2)CCN(c2ncnc3[nH]cnc23)CC1 [Example 9, Methyl-[4-[3-(1-methyl-1H-pyrazol-4-yl)-phenyl]-1-(9H-purin-6-yl)-piperidin-4-ylmethyl]-amine] | 400 |
| Cn1cc(-c2cccc(C3(CO)CCN(c4ncnc5[nH]cnc45)CC3)c2)cn1 [Example 10, [4-[3-(1-Methyl-1H-pyrazol-4-yl)-phenyl]-1-(9H-purin-6-yl)-piperidin-4-yl]-methanol] | 5100 |
| NC1(C(=O)NCc2ccc(C(F)(F)F)nc2)CCN(c2ncnc3[nH]ccc23)CC1 [Example 14, 4-amino-1-(7H-pyrrolo[2,3-d]pyrimidin-4-yl)-piperidine-4-carboxylic acid (6-trifluoromethyl-pyridin-3-ylmethyl)-amide hydrochloride] | 1400 |
| NCC1(C(=O)NCc2ccc(Br)s2)CCN(c2ncnc3[nH]ccc23)CC1 [Example 21, 4-(aminomethyl)-N-((5-bromothiophen-2-yl)methyl)-1-(7H-pyrrolo[2,3-d]pyrimidin-4-yl)piperidine-4-carboxamide] | < 5.9 |
| NCC1(C(=O)NCc2ccc(Cl)s2)CCN(c2ncnc3[nH]ccc23)CC1 [Example 22, 4-(Aminomethyl)-N-((5-chlorothiophen-2-yl)methyl)-1-(7H-pyrrolo[2,3-]pyrimidin-4-yl)piperidine-4-carboxamide] | 16 |
| Cc1ccc(CNC(=O)C2(CN)CCN(c3ncnc4[nH]ccc34)CC2)s1 [Example 23, 4-(Aminomethyl)-N-((5-methylthiophen-2-yl)methyl)-1-(7H-pyrrolo[2,3-d]pyrimidin-4-yl)piperidine-4-carboxamide] | 43 |
| NCC1(C(=O)NCc2cc(Br)no2)CCN(c2ncnc3[nH]ccc23)CC1 [Example 24, 4-(Aminomethyl)-N-((3-bromoisoxazol-5-yl)methyl)-1-(7H-pyrrolo[2,3-d]pyrimidin-4-yl)piperidine-4-carboxamide] | 8.6 |
| NCC1(C(=O)NCc2cc3ccccc3[nH]2)CCN(c2ncnc3[nH]nc(Br)c23)CC1 [Example 25, N-((1H-Indol-2-yl)methyl)-4-(aminomethyl)-1-(3-bromo-1H-pyrazolo[3,4-d]pyrimidin-4-yl)piperidine-4-carboxamide] | 10 |
| NCC1(C(=O)NCc2cc3ccccc3[nH]2)CCN(c2ncnc3[nH]ccc23)CC1 [Example 26, N-((1H-Indol-2-yl)methyl)-4-(aminomethyl)-1-(7H-pyrrolo[2,3-d]pyrimidin-4-yl)piperidine-4-carboxamide] | 23 |
| NCC1(C(=O)NCc2ccc(C(F)(F)F)nc2)CCN(c2ncnc3[nH]ccc23)CC1 [Example 27, 4-(Aminomethyl)-1-(7H-pyrrolo[2,3-d]pyrimidin-4-yl)-N-((6-(trifluoromethyl)pyridin-3-yl)methyl)piperidine-4-carboxamide] | 110 |
| Cn1cc(-c2cccc(C3(CN)CCN(c4ncnc5[nH]cc(Br)c45)CC3)c2)cn1 [Example 28, (1-(5-bromo-7H-pyrrolo[2,3-d]pyrimidin-4-yl)-4-(3-(1-methyl-1H-pyrazol-4-yl)phenyl)piperidin-4-yl)methanamine] | 7.2 |
| Cn1cc(-c2cccc(C3(CN)CCN(c4ncnc5[nH]cc(Cl)c45)CC3)c2)cn1 [Example 29, (1-(5-Chloro-7H-pyrrolo[2,3-d]pyrimidin-4-yl)-4-(3-(1-methyl-1H-pyrazol-4-yl)phenyl)piperidin-4-yl)methanamine] | 11 |
| Cc1c[nH]c2ncnc(N3CCC(CN)(c4cccc(-c5cnn(C)c5)c4)CC3)c12 [Example 30, (4-(3-(1-methyl-1H-pyrazol-4-yl)phenyl)-1-(5-methyl-7H-pyrrolo[2,3-d]pyrimidin-4-yl)piperidin-4-yl)methanamine] | 27 |
| Cn1cc(-c2cccc(C3(CN)CCN(c4ncnc5[nH]nc(Br)c45)CC3)c2)cn1 [Example 31, (1-(3-Bromo-1H-pyrazolo[3,4-d]pyrimidin-4-yl)-4-(3-(1-methyl-1H-pyrazol-4-yl)phenyl)piperidin-4-yl)methanamine] | 22 |
| CN(C)CC1(c2cccc(-c3cnn(C)c3)c2)CCN(c2ncnc3[nH]cnc23)CC1 [Example 32, N,N-dimethyl-1-(4-(3-(1-methyl-1H-pyrazol-4-yl)phenyl)-1-(9H-purin-6-yl)piperidin-4-yl)methanamine] | 290 |
| Cn1cc(-c2cccc(C3(CN4CCCC4)CCN(c4ncnc5[nH]cnc45)CC3)c2)cn1 [Example 33, 6-(4-(3-(1-methyl-1H-pyrazol-4-yl)phenyl)-4-(pyrrolidin-1-ylmethyl)piperidin-1-yl)-9H-purine] | 740 |
| Cn1cc(-c2cccc(C3(CCCN)CCN(c4ncnc5[nH]cnc45)CC3)c2)cn1 [Example 34, 3-(4-(3-(1-methyl-1H-pyrazol-4-yl)phenyl)-1-(9H-purin-6-yl)piperidin-4-yl)propan-1-amine] | > 2000 |
| Cn1cc(-c2cccc(C3(CNC(=O)CN)CCN(c4ncnc5[nH]cnc45)CC3)c2)cn1 [Example 35, 2-amino-N-((4-(3-(1-methyl-1H-pyrazol-4-yl)phenyl)-1-(9H-purin-6-yl)piperidin-4-yl)methyl)acetamide] | 1300 |
| CN(C)CC(=O)NCC1(c2cccc(-c3cnn(C)c3)c2)CCN(c2ncnc3[nH]cnc23)CC1 [Example 36, 2-(dimethylamino)-N-((4-(3-(1-methyl-1H-pyrazol-4-yl)phenyl)-1-(9H-purin-6-yl)piperidin-4-yl)methyl)acetamide] | 2800 |
| Cn1cc(-c2cccc(C3(C(N)=O)CCN(c4ncnc5[nH]cnc45)CC3)c2)cn1 [Example 37, 4-[3-(1-methylpyrazol-4-yl)phenyl]-1-(9H-purin-6-yl)piperidine-4-carboxamide] | > 30000 |
| NC1(C(=O)NCc2ccc(Cl)s2)CCN(c2ncnc3[nH]ccc23)CC1 [Example 39, 4-Amino-N-[(5-chlorothiophen-2-yl)methyl]-1-(7H-pyrrolo[2,3-d]pyrimidin-4-yl)piperidine-4-carboxamide] | 300 |
| Cc1csc(CNC(=O)C2(N)CCN(c3ncnc4[nH]ccc34)CC2)n1 [Example 40, 4-Amino-N-[(4-methyl-1,3-thiazol-2-yl)methyl]-1-(7H-pyrrolo[2,3-d]pyrimidin-4-yl)piperidine-4-carboxamide] | 3400 |
| NC1(C(=O)NCc2cnc3ccccc3c2)CCN(c2ncnc3[nH]ccc23)CC1 [Example 41, 4-Amino-1-(7H-pyrrolo[2,3-d]pyrimidin-4-yl)-N-(quinolin-3-ylmethyl)piperidine-4-carboxamide] | 4100 |
| NC1(C(=O)NCc2csc(-c3ccccc3)n2)CCN(c2ncnc3[nH]ccc23)CC1 [Example 42, 4-Amino-N-[(2-phenyl-1,3-thiazol-4-yl)methyl]-1-(7H-pyrrolo[2,3-d]pyrimidin-4-yl)piperidine-4-carboxamide] | 7100 |

From patent publication US20100120798A1, “SUBSTITUTED PIPERIDINES CONTAINING A HETEROARYLAMIDE OR HETEROARYLPHENYL MOIETY” (ASTEX THERAPEUTICS LIMITED, priority 2006, published 2010)
